# Experimental data as given in patent US20090130118A1, “SCUTELLARIA BARBATA EXTRACT AND COMBINATIONS FOR THE TREATMENT OF CANCER” (BIONOVO, INC., priority 2007, published 2009).
# Experiments:
# [1] = tested on: subcutaneous cancer xenografts; experiment: Mouse xenograft model, oral administration; assay type: in vivo; settings: BZL101 0.5 ml oral gavage every third day; cyclophosphamide 25 mg/Kg/day in drinking water; FIG. 6
# Protocol: As in Example 1, above, 10^5 cells were administered to each animal subcutaneously on Day 0. The animals were divided into four groups. The control group received only normal drinking water. The cyclophosphamide only group received 25 mg/Kg/day of cyclophosphamide in their drinking water.
# GnHR receptor = target: T1, GnHR receptor (Homo sapiens, UniProt P30968); settings: in vivo studies; cited from earlier work
# T1 sequence (P30968 1-328): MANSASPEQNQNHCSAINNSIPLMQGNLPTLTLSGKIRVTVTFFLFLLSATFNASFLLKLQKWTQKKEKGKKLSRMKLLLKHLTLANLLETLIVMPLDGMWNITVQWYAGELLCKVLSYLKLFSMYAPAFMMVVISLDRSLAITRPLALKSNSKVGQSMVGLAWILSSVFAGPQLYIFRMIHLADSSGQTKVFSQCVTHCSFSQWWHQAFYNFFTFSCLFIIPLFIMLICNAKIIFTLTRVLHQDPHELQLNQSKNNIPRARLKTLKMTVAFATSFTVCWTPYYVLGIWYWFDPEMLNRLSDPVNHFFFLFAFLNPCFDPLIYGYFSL
# aromatase = target: T2, aromatase (Homo sapiens, UniProt P11511); settings: in vivo studies; cited from earlier work
# T2 sequence (P11511 1-503): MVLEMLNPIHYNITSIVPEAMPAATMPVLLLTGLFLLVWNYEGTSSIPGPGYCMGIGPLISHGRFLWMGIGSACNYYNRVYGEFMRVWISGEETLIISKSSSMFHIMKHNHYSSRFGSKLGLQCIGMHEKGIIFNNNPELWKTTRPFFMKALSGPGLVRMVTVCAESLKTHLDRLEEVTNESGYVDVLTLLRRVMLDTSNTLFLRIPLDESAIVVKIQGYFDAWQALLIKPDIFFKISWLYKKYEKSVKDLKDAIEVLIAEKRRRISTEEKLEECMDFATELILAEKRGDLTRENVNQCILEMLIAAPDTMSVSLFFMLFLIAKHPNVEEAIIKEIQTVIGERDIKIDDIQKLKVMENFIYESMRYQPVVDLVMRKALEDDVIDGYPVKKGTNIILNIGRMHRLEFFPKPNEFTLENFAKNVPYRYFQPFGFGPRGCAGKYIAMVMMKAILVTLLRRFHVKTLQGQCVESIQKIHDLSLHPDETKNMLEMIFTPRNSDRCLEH
# human tumor xenographs = settings: doses from 0.75 mg/kg/day to 1.5 mg/kg/day; cited from earlier work
# estrogen receptors = settings: compared with estrodiol; cited from earlier work
# estrogen receptor = target: T3, estrogen receptor (Homo sapiens, UniProt P03372); settings: cited from earlier work
# T3 sequence (P03372 1-595): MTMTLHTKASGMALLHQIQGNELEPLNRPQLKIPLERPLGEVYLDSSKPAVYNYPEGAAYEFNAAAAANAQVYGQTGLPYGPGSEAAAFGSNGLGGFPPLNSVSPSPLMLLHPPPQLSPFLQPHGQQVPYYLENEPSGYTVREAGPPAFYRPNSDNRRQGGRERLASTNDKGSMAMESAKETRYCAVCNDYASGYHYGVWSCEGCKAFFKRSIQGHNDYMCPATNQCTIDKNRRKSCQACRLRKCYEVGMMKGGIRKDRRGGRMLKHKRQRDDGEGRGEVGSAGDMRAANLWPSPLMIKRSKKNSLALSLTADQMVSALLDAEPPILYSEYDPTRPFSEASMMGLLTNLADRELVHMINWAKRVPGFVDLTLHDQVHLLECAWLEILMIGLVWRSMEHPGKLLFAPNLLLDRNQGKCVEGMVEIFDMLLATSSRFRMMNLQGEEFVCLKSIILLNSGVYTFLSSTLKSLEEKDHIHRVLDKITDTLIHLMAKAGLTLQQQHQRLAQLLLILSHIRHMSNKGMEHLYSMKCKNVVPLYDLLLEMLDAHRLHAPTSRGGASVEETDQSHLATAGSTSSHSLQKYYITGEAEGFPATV
# ETAR = target: T4, ETAR (Homo sapiens, UniProt P25101); settings: cited from earlier work
# T4 sequence (P25101 21-427): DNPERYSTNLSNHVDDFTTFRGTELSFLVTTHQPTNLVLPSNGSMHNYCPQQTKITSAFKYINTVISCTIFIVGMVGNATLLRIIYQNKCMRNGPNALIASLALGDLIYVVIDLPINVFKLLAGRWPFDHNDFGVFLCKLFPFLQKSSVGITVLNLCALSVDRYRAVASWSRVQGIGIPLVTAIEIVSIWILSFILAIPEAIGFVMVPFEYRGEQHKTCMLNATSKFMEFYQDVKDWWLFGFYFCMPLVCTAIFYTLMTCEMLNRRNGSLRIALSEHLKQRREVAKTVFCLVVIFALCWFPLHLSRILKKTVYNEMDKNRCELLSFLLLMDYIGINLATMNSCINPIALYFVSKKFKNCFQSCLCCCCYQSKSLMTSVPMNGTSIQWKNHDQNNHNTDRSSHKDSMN
# ETBR = target: T5, ETBR (Homo sapiens, UniProt P24530); settings: cited from earlier work
# T5 sequence (P24530 27-442): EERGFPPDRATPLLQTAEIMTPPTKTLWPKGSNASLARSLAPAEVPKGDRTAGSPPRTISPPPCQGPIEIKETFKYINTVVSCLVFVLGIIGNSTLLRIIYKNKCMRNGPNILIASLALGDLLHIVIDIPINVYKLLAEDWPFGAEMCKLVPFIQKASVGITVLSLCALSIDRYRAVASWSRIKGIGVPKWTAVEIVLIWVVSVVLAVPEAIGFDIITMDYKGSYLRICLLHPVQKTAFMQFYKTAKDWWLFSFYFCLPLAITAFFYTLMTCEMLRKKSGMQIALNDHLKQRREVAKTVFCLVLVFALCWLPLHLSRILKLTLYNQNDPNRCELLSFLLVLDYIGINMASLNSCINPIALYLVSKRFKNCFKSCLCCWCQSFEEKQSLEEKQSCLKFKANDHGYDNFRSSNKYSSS
compound,measurement,setting,value
O=P1(N(CCCl)CCCl)NCCCO1 (stereo not drawn) [cyclophosphamide],tumor growth in xenograft,[1],inhibited tumor growth as compared to the control
CC(C)C[C@H](NC(=O)[C@@H](COC(C)(C)C)NC(=O)[C@H](Cc1ccc(O)cc1)NC(=O)[C@H](CO)NC(=O)[C@H](Cc1c[nH]c2ccccc12)NC(=O)[C@H](Cc1cnc[nH]1)NC(=O)[C@@H]1CCC(=O)N1)C(=O)N[C@@H](CCCNC(=N)N)C(=O)N1CCC[C@H]1C(=O)NNC(N)=O [Goserelin],"production of FSH and LH and sex hormones, initial effect",GnHR receptor,initial increase in production of FSH and LH
same,time after which the receptor is downregulated and LH or FSH levels fall,GnHR receptor,14 to 21 days
CC(C)(C#N)c1cc(Cn2cncn2)cc(C(C)(C)C#N)c1 [Anastrozole],serum estradiol concentrations,aromatase,significantly lowers serum estradiol concentrations
COc1cc2c(Oc3ccc4[nH]c(C)cc4c3F)ncnc2cc1OCCCN1CCCC1 [AZD 2171],tumor angiogenesis,human tumor xenographs,inhibited tumor angiogenesis
C[C@]12CC[C@@H]3c4ccc(O)cc4C[C@@H](CCCCCCCCC[S+]([O-])CCCC(F)(F)C(F)(F)F)[C@H]3[C@@H]1CC[C@@H]2O (stereo partly drawn) [Fulvestrant],affinity for estrogen receptors,estrogen receptors,affinity that is similar to that of estrodiol
same,effect on estrogen receptor level,estrogen receptor,downregulates and degrades the estrogen receptor
COc1nc(C)cnc1NS(=O)(=O)c1cccnc1-c1ccc(-c2nnco2)cc1 [ZD4054],binding to ETAR,ETAR,only binds to ETAR
same,effect on ETBR,ETBR,no detectable effect on ETBR
